Laboratory results reported in PubChem BioAssay AID2005 (Sanford-Burnham Center for Chemical Genomics, 2009).
The source made the active and inactive calls.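 The calls were made as follows: active = plate Z score at or below -3, or inhibition of at least 30% at 20 µM; inactive = the rest.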

Test: EGFP reporter destabilization counter-screen – F442A EGFP cells, fluorescence, counter-screen for p/CIP destabilizer project, dose response (AID 2005);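 also: cells express EGFP alone from a CMV promoter as a counter screen for p/CIP-EGFP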
Settings: F442A EGFP cells, EGFP fluorescence, 16 h, stronger effect = higher value

SMILES	inhibition (EGFP decrease, at 10 µM) [%]	inhibition (at 20 µM)
COc1c[nH]n(C2CCCCC2)c(=O)c1=O	6.1	-8.9% (inactive)
CCOC(=O)c1c(C)n(C)c2cc(OCCN(CC)CC)ccc12	-6	8.6% (inactive)
CCCCn1c(SCC(=O)NCc2ccco2)nc2c(sc3ccccc32)c1=O	20.5	13.2% (inactive)
CC(OC(=O)C1CSC2(c3ccc(F)cc3)CCC(=O)N12)C(=O)NC(N)=O (centres undefined)	48.2	-5.1% (inactive)
O=C(CN1CCCCC1)N/N=C/c1cccc(Cl)c1	13.5	17.4% (inactive)
Cc1cc(CN(C)C(=O)c2ccc3nc(Cc4ccccc4F)oc3c2)on1	21.3	8.5% (inactive)
COc1ccc(/C=C/C(=O)Nc2cccc(N3CCOCC3)c2)cc1OC	-4.5	6.7% (inactive)
CC1CCCCC1NC(=O)c1cn(C)c2ccc(S(=O)(=O)N3CCCC3)cc2c1=O (centres undefined)	12.3	6.4% (inactive)
CCCNC(=O)Cn1c(=O)oc2ccccc21	-20.6	8.8% (inactive)
COc1ccc(-c2cc(C(F)(F)F)nc(N3CCN(C)CC3)n2)cc1OC	8.9	8% (inactive)
COCCN(CC(=O)NC1CCCCC1)C(=O)CSc1nc2ccccc2o1	7.4	28.7% (inactive)
O=C(NNS(=O)(=O)c1ccc(F)cc1)C1CCN(S(=O)(=O)c2ccccc2)CC1	-22.3	-6.1% (inactive)
COc1ccc(CNC(=O)C(c2ccc(C)o2)N(Cc2cccs2)C(=O)Cc2cccs2)cc1 (centres undefined)	33.3	25.5% (inactive)
Cc1ccc(S(=O)(=O)Nc2cccc(-c3cn4ccsc4n3)c2)cc1	31	10.2% (inactive)
Cc1cc(/N=C/N(C)C)on1	20.8	-23.7% (inactive)
Cc1ccccc1OC(C)C(=O)Nc1ccc(S(=O)(=O)Nc2nccs2)cc1 (centres undefined)	-2.8	-1.1% (inactive)
CC(CN1CCOCC1)OC(=O)C(C)(c1ccccc1)c1ccccc1 (centres undefined)	-14.9	-4.6% (inactive)
Cc1ccc(Cn2c(SCC(C)C)nc3c2c(=O)[nH]c(=O)n3C)cc1	6.3	20.7% (inactive)
CS(=O)(=O)c1ccc(S(=O)CC(=O)OCc2ccccc2)c([N+](=O)[O-])c1 (centres undefined)	16	-0.6% (inactive)

SMILES	inhibition (EGFP decrease, at 10 µM) [%]	inhibition (at 20 µM)
CCOC(=O)C(C)On1c(-c2ccccc2)nc2ccc([N+](=O)[O-])cc21 (centres undefined)	5.1	25% (inactive)
Cc1cc(C(=O)Nc2cccc(O)c2)c(C)o1	7.4	-9.8% (inactive)
CCc1ccc(NC(=O)CCn2c(=O)oc3ccccc32)cc1	11.9	3.3% (inactive)
COc1ccc(C(NC(=O)CC(C)C)c2c(O)ccc3ccccc23)cc1 (centres undefined)	18.1	5.2% (inactive)
CC(=O)Nc1ccc(S(=O)(=O)NCc2cn3ccsc3n2)cc1	8.3	1% (inactive)
CCOc1ccccc1OCc1nn2c(-c3ccc(C)cc3)nnc2s1	-2	-2.8% (inactive)
COc1ccc(S(=O)(=O)N2c3ccccc3OCC2c2ccccc2)cc1 (centres undefined)	-12.8	1.8% (inactive)
O=S(=O)(Nc1cc(Sc2ncn[nH]2)c(O)c2ccccc12)c1ccccc1	38.3	2.2% (inactive)
COc1cc(CNCCCO)ccc1OCC(=O)NC(C)(C)C	-2.3	22.9% (inactive)
O=C(COc1ccc(F)cc1)Nc1nc2c(s1)CCCC2	26.7	24% (inactive)
O=C(CCCOc1ccccc1)Nc1nncs1	-15.9	22.7% (inactive)
Cn1ncnc2c(=O)n(C)c(=O)nc1-2	49.3	61.7%
CNc1cc(C(F)(F)F)nc(-c2ccccn2)n1	-1.6	22.4% (inactive)
O=S(=O)(NCC1CCCN(Cc2ccccc2)C1)c1cccc2cccnc12 (centres undefined)	21.3	19.6% (inactive)
COC(=O)Cn1cc(C(=O)c2cccs2)c2ccccc21	27.1	14.5% (inactive)
CCc1ccc(CN2CCC(n3nccc3NC(=O)c3ccccc3C)CC2)cc1	22.7	-0.4% (inactive)
CC(Nc1cc(N2CCN(S(=O)(=O)N(C)C)CC2)ccc1[N+](=O)[O-])c1ccccc1 (centres undefined)	7.3	23.9% (inactive)
Cc1ccc(-c2nnc(CSc3nc(C)nc4sc(C)c(C)c34)o2)cc1	12.1	14.3% (inactive)
Cc1cc(C)n2nc(SCC(=O)c3ccccc3)nc2n1	23.7	31%

SMILES	inhibition (EGFP decrease, at 10 µM) [%]	inhibition (at 20 µM)
COc1ccccc1N1CCN(C(=O)C(CC(C)C)NC(=O)C2CCCCC2)CC1 (centres undefined)	-31.4	6% (inactive)
Cc1ccc(S(=O)(=O)Nc2cc(C(C)C)c(O)cc2C)cc1	-16.2	-4.5% (inactive)
COc1ccc(-n2ncc3c(SCC(=O)N4CCN(c5ccccc5OC)CC4)ncnc32)cc1	17.1	9.4% (inactive)
N/C(=N\OC(=O)c1ccc(Cl)cc1Cl)c1ccccc1	10.4	1.3% (inactive)
Cc1ccccc1CN1CCC(CNC(=O)Nc2ccc(F)cc2F)CC1	25.1	20.2% (inactive)
CC(=O)c1cccc(OCc2cc(C(=O)N3CC4C[C@@H]5CC3C[C@H](C4)C5)no2)c1	37.1	27% (inactive)
COC(=O)c1ccc(-c2ccc(CNCC(O)c3ccccc3)o2)cc1 (centres undefined)	8.8	7.1% (inactive)
C=CCc1cccc2cc(C(=O)NC)c(=O)oc12	12.9	30.8%
CCCC(=O)c1c[nH]c(C(=O)NCCc2ccccn2)c1	20.5	29.1% (inactive)
CCOc1ccc(CC(=O)Nc2ccc(S(=O)(=O)Nc3cc(C)on3)cc2)cc1OCC	7.6	10.1% (inactive)
CCCCOc1ccc(/C(O)=C2/C(=O)C(=O)N(CCCOC)C2c2ccncc2)cc1 (centres undefined)	5.3	-10.4% (inactive)
Cn1nnnc1SCC(=O)c1cccs1	11.4	9.9% (inactive)
CCOC(=O)N1CCN(c2ccc(C(C)=O)cc2F)CC1	10.1	-6.2% (inactive)
O=C(CNC(=O)c1ccco1)NCC(=O)OCc1ccc(Cl)cc1Cl	-15.3	6% (inactive)
CC1CC(C)CN(C(=O)c2ccc3c(c2NCCO)C(=O)c2ccccc2C3=O)C1 (centres undefined)	12.8	7.9% (inactive)
Cn1c(SCc2ccc(C#N)cc2)nnc1-c1ccccc1	18.5	-12.9% (inactive)
CCCc1nc(NCC2CCCO2)c2nnn(Cc3ccccc3)c2n1 (centres undefined)	39	12.1% (inactive)
O=C(NCC1CCCO1)C1CCCCN1S(=O)(=O)c1ccc(F)cc1 (centres undefined)	-13.3	9.4% (inactive)
CCOC(=O)CCc1c(C)c2ccc(OCC(=O)N(CC)CC)c(C)c2oc1=O	19.9	8.8% (inactive)
